Measured values: patent publication US20220152188A1, “TLR4-TLR7 LIGAND FORMULATIONS AS VACCINE ADJUVANTS” (The Regents of the University of California, priority 2019, published 2022)

Legend:
Type in all cases: cell-based
Conditions in all cases: Compound 1 = 100
[1] = system: IL-8; assay: IL-8, human (Tables 1-3)
[2] = system: IL-6; assay: IL-6, mouse (Tables 1-3)
[3] = target: TLR4 (Homo sapiens, UniProt O00206+Q9Y6Y9); assay: TLR4, human (Tables 1-3)
[4] = target: T1, TLR4 (Mus musculus, UniProt Q9JHF9+Q9QUK6); assay: TLR4, mouse (Tables 1-3)
T1 sequence (Q9QUK6 26-835): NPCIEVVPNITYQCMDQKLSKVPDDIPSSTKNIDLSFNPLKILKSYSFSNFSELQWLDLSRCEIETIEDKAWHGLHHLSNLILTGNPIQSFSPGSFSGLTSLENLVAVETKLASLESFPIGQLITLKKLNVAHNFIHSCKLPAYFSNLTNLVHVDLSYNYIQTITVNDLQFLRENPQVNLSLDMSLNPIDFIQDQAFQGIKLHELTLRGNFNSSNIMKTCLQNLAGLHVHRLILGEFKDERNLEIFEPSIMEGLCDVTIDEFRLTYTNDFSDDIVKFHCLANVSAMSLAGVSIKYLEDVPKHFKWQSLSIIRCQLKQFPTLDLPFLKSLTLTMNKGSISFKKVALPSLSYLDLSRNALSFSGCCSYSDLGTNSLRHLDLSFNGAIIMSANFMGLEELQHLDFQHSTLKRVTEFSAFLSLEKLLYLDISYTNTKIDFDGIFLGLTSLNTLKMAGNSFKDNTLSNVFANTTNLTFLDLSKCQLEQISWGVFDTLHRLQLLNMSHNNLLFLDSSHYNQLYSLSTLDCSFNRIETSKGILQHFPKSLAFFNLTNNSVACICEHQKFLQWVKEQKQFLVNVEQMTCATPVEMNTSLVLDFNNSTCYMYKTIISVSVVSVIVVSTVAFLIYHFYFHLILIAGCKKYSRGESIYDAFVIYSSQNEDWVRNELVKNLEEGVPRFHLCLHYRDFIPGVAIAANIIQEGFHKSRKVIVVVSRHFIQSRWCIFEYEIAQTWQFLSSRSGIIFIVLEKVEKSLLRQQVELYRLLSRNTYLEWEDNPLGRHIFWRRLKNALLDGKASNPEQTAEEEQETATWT
T1 sequence (Q9JHF9 19-160): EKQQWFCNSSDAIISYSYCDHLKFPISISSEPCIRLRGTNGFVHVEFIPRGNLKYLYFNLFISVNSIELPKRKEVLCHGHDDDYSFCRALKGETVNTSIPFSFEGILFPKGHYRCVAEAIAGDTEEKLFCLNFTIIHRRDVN

[5] = system: IP-10; assay: IP-10, mouse (Tables 1-3)
[6] = Table 1, R^3 series, footnotes not given
Also: test concentration or dose not given here.

Chain of TLR4 (Homo sapiens, UniProt O00206+Q9Y6Y9) (O00206 24-839): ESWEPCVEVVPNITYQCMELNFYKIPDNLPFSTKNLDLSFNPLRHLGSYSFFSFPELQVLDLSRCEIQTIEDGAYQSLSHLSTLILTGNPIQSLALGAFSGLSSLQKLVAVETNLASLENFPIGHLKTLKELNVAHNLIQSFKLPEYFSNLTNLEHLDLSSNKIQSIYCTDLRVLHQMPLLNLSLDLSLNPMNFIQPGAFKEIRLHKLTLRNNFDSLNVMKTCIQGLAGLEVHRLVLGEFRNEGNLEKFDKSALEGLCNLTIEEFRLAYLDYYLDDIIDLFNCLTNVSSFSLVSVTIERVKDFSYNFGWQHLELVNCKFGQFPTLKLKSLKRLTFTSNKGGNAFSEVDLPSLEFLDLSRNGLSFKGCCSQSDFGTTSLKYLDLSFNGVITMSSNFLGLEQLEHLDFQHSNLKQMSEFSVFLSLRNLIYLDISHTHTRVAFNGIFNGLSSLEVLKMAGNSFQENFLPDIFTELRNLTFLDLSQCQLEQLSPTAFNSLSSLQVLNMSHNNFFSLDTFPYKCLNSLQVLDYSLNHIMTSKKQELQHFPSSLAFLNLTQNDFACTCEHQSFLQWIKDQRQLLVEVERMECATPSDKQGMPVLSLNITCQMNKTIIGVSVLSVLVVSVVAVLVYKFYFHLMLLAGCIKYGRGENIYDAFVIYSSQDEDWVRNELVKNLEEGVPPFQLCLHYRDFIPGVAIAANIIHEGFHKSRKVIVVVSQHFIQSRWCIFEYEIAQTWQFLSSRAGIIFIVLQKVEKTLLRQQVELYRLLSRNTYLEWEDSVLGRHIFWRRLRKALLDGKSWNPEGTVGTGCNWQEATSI
Chain of TLR4 (Homo sapiens, UniProt O00206+Q9Y6Y9) (Q9Y6Y9 17-160 limits assumed): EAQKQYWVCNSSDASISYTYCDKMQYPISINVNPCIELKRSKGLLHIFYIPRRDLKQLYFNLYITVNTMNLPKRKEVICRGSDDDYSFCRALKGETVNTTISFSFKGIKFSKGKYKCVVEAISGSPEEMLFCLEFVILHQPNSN

SMILES | human IL-8 ([1]; Table 2, R^2 series) | mouse IL-6 ([2]; Table 2, R^2 series) | human TLR4 ([3]; Table 2, R^2 series) | mouse TLR4 ([4]; Table 2, R^2 series) | mouse IP-10 ([5]; Table 2, R^2 series) | human IL-8 ([1]; Table 3, R^1 series) | mouse IL-6 ([2]; Table 3, R^1 series) | human TLR4 ([3]; Table 3, R^1 series) | mouse TLR4 ([4]; Table 3, R^1 series) | mouse IP-10 ([5]; Table 3, R^1 series) | further results
CC(C)CNC(=O)CSc1nc2c([nH]c3ccccc32)c(=O)n1-c1ccccc1 [Compound 26] | 11 | 44 | 21 | 24 | 53 | – | – | – | – | – | –
CC(C)CCNC(=O)CSc1nc2c([nH]c3ccccc32)c(=O)n1-c1ccccc1 [Compound 27] | 53 | 61 | 38 | 56 | 62 | – | – | – | – | – | –
CC(C)(C)CCNC(=O)CSc1nc2c([nH]c3ccccc32)c(=O)n1-c1ccccc1 [Compound 28] | 95 | 99 | 72 | 126 | 85 | – | – | – | – | – | –
CCC(C)CCNC(=O)CSc1nc2c([nH]c3ccccc32)c(=O)n1-c1ccccc1 (centres unmarked) [Compound 29] | 23 | 30 | 17 | 29 | 45 | – | – | – | – | – | –
CCCC(C)NC(=O)CSc1nc2c([nH]c3ccccc32)c(=O)n1-c1ccccc1 (centres unmarked) [Compound 30] | 6 | 12 | 13 | 17 | 55 | – | – | – | – | – | –
CCC(CC)NC(=O)CSc1nc2c([nH]c3ccccc32)c(=O)n1-c1ccccc1 [Compound 31] | <1 | 10 | 11 | 8 | 26 | – | – | – | – | – | –
O=C(CSc1nc2c([nH]c3ccccc32)c(=O)n1-c1ccccc1)NCC1CCCO1 (centres unmarked) [Compound 33] | 8 | 23 | 13 | 21 | 54 | – | – | – | – | – | –
O=C(CSc1nc2c([nH]c3ccccc32)c(=O)n1C1CCCCC1)NC1CCCCC1 [Compound 36] | – | – | – | – | – | 27 | 71 | 40 | 56 | 61 | –
O=C(CSc1nc2c([nH]c3ccccc32)c(=O)n1-c1ccc(F)cc1)NC1CCCCC1 [Compound 37] | – | – | – | – | – | 5 | 48 | 51 | 41 | 72 | –
Cc1ccc(-n2c(SCC(=O)NC3CCCCC3)nc3c([nH]c4ccccc43)c2=O)cc1 [Compound 38] | – | – | – | – | – | 6 | <1 | 2 | 2 | <1 | –
O=C(CSc1nc2c([nH]c3ccccc32)c(=O)n1-c1ccc2ccccc2c1)NC1CCCCC1 [Compound 39] | – | – | – | – | – | <1 | 3 | 3 | 6 | <1 | –
O=C(CSc1nc2c([nH]c3ccccc32)c(=O)n1CCc1ccccc1)NC1CCCCC1 [Compound 40] | – | – | – | – | – | 5 | <1 | 1 | 1 | <1 | –
Cn1c2ccccc2c2nc(SCC(=O)NC3CCCCC3)n(-c3ccccc3)c(=O)c21 [Compound 42] | – | – | – | – | – | – | – | – | – | – | human IL-8 ([1]; Table 1, R^3 series): 79; mouse IL-6 [2, 6]: 101; human TLR4 ([3]; Table 1, R^3 series): 92; mouse TLR4 ([4]; Table 1, R^3 series): 100; mouse IP-10 ([5]; Table 1, R^3 series): 99
CCCCCn1c2ccccc2c2nc(SCC(=O)NC3CCCCC3)n(-c3ccccc3)c(=O)c21 [Compound 49] | – | – | – | – | – | – | – | – | – | – | human IL-8 ([1]; Table 1, R^3 series): 1; mouse IL-6 [2, 6]: 5; human TLR4 ([3]; Table 1, R^3 series): 11; mouse TLR4 ([4]; Table 1, R^3 series): 6; mouse IP-10 ([5]; Table 1, R^3 series): <1
CCCCCCCCCCCCn1c2ccccc2c2nc(SCC(=O)NC3CCCCC3)n(-c3ccccc3)c(=O)c21 [Compound 50] | – | – | – | – | – | – | – | – | – | – | human IL-8 ([1]; Table 1, R^3 series): <1; mouse IL-6 [2, 6]: <1; human TLR4 ([3]; Table 1, R^3 series): 10; mouse TLR4 ([4]; Table 1, R^3 series): 4; mouse IP-10 ([5]; Table 1, R^3 series): <1
N#CCn1c2ccccc2c2nc(SCC(=O)NC3CCCCC3)n(-c3ccccc3)c(=O)c21 [Compound 51] | – | – | – | – | – | – | – | – | – | – | human IL-8 ([1]; Table 1, R^3 series): 30; mouse IL-6 [2, 6]: 98; human TLR4 ([3]; Table 1, R^3 series): 19; mouse TLR4 ([4]; Table 1, R^3 series): 55; mouse IP-10 ([5]; Table 1, R^3 series): 64
